Measured values from BigSolDB 2.1.

CC1(C)C[C@@H]1C(N)=O
solubility (mole fraction) (in chloroform, 286.26 K): 0.0357 | solubility (mole fraction) (in chloroform, 293.65 K): 0.0395 | solubility (mole fraction) (in chloroform, 296.64 K): 0.0429 | solubility (mole fraction) (in chloroform, 300.25 K): 0.0484 | solubility (mole fraction) (in chloroform, 303.47 K): 0.0529 | solubility (mole fraction) (in chloroform, 308.04 K): 0.0596 | solubility (mole fraction) (in chloroform, 310.96 K): 0.0665 | solubility (mole fraction) (in chloroform, 314.18 K): 0.0699 | solubility (mole fraction) (in chloroform, 317.45 K): 0.0789 | solubility (mole fraction) (in chloroform, 321.27 K): 0.0902 | solubility (mole fraction) (in dichloromethane, 288.72 K): 0.0152 | solubility (mole fraction) (in dichloromethane, 292.45 K): 0.0177 | solubility (mole fraction) (in dichloromethane, 296.11 K): 0.0205 | solubility (mole fraction) (in dichloromethane, 298.74 K): 0.0233 | solubility (mole fraction) (in dichloromethane, 300.83 K): 0.0248 | solubility (mole fraction) (in dichloromethane, 302.2 K): 0.0268 | solubility (mole fraction) (in dichloromethane, 304.6 K): 0.0301 | solubility (mole fraction) (in dichloromethane, 306.27 K): 0.0321 | solubility (mole fraction) (in dichloromethane, 309.29 K): 0.0367 | solubility (mole fraction) (in ethanol, 290.04 K): 0.089 | solubility (mole fraction) (in ethanol, 293.28 K): 0.0945 | solubility (mole fraction) (in ethanol, 296.81 K): 0.101 | solubility (mole fraction) (in ethanol, 299.25 K): 0.107 | solubility (mole fraction) (in ethanol, 302.71 K): 0.116 | solubility (mole fraction) (in ethanol, 306.04 K): 0.123 | solubility (mole fraction) (in ethanol, 309.67 K): 0.134 | solubility (mole fraction) (in ethanol, 313.53 K): 0.148 | solubility (mole fraction) (in ethanol, 318.09 K): 0.163 | solubility (mole fraction) (in ethyl acetate, 288.96 K): 0.0169 | solubility (mole fraction) (in ethyl acetate, 290 K): 0.0205 | solubility (mole fraction) (in ethyl acetate, 294.53 K): 0.0279 | solubility (mole fraction) (in ethyl acetate, 301.16 K): 0.0357 | solubility (mole fraction) (in ethyl acetate, 305.88 K): 0.0409 | solubility (mole fraction) (in ethyl acetate, 311 K): 0.0483 | solubility (mole fraction) (in ethyl acetate, 316.3 K): 0.0557 | solubility (mole fraction) (in ethyl acetate, 323.65 K): 0.0787 | solubility (mole fraction) (in ethyl acetate, 328.41 K): 0.0912 | solubility (mole fraction) (in toluene, 288.7 K): 0.00221 | solubility (mole fraction) (in toluene, 302.9 K): 0.004 | solubility (mole fraction) (in toluene, 311.23 K): 0.00599 | solubility (mole fraction) (in toluene, 318.11 K): 0.00858 | solubility (mole fraction) (in toluene, 324.07 K): 0.011 | solubility (mole fraction) (in toluene, 328.47 K): 0.0137 | solubility (mole fraction) (in toluene, 332.43 K): 0.016 | solubility (mole fraction) (in toluene, 338.07 K): 0.0219 | solubility (mole fraction) (in toluene, 342.25 K): 0.0259 | solubility (mole fraction) (in toluene, 348.06 K): 0.035 | solubility (mole fraction) (in water, 294.8 K): 0.00374 | solubility (mole fraction) (in water, 308.15 K): 0.00499 | solubility (mole fraction) (in water, 314.67 K): 0.00583 | solubility (mole fraction) (in water, 327.39 K): 0.00716 | solubility (mole fraction) (in water, 331.7 K): 0.00917 | solubility (mole fraction) (in water, 336.08 K): 0.0115 | solubility (mole fraction) (in water, 340.86 K): 0.0146 | solubility (mole fraction) (in water, 345.84 K): 0.0177 | solubility (mole fraction) (in water, 353.93 K): 0.026
